Our source for the TGI and GI50 values is PubChem BioAssay (NCI).

Among the test systems are ACHN renal; CAKI-1 renal; HCT-15 colon; IGROV1 ovarian; MCF7 breast; NCI-H226 lung; SNB-75 CNS; SR leukemia; T-47D breast; UACC-257 melanoma.
What all share (test): NCI tumour cell line growth inhibition, 48 h

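Cells were grown in 96-well plates and exposed to each compound for 48 hours at five concentrations; endpoints were interpolated linearly between bracketing concentrations, or set to the highest concentration if not reached. GI50 is the concentration that inhibits growth by half. TGI is the concentration that stops growth completely.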 Some results are limits rather than exact numbers.

Consider `CC1=C(C(=O)N[C@@H](CC(C)C)C(=O)O)N2C(=O)[C@@H](NC(=O)C(N)c3ccccc3)[C@H]2SC1` (stereo partly specified), for which the TGI in the assay on ACHN renal, in the assay with CAKI-1 renal, with HCT-15 colon, in the assay with IGROV1 ovarian, with MCF7 breast and in the assay on NCI-H226 lung was greater than 100 µM in each case. Besides, the TGI in the assay on SNB-75 CNS, in the assay on SR leukemia, in the assay with T-47D breast and in the assay on UACC-257 melanoma was greater than 100 µM in each case.
Regarding `COC(=O)CC1c2ccccc2N2C(=O)Cc3c([nH]c4ccccc34)C12` (stereo unspecified), the TGI with ACHN renal, in the assay with CAKI-1 renal, in the assay with HCT-15 colon, in the assay with IGROV1 ovarian, in the assay with MCF7 breast and with NCI-H226 lung was greater than 100 µM in each case. The TGI with SNB-75 CNS, in the assay on SR leukemia, with T-47D breast and in the assay on UACC-257 melanoma was greater than 100 µM throughout.
With `CCO/C=N/C1=C(C#N)SC2=N/C(=C\c3ccccc3)C(=O)N21`, the TGI in the assay on ACHN renal, in the assay on CAKI-1 renal, with HCT-15 colon, with IGROV1 ovarian, in the assay on MCF7 breast and in the assay on NCI-H226 lung was greater than 100 µM each time. The TGI with SNB-75 CNS was greater than 100 µM; in the assay on SR leukemia, greater than 93.8 µM; in the assay on T-47D breast, greater than 100 µM; with UACC-257 melanoma, greater than 100 µM.
Turning to `BrCC[N+]12CC[N+](CCBr)(CC1)C2`, the TGI in the assay on ACHN renal, with CAKI-1 renal, with HCT-15 colon, with IGROV1 ovarian, in the assay on MCF7 breast and with NCI-H226 lung was greater than 100 µM each time. Also, the TGI in the assay on SNB-75 CNS, in the assay on SR leukemia, in the assay with T-47D breast and in the assay with UACC-257 melanoma was greater than 100 µM in each case.
For `ClCCCCCc1c2nc(c(CCCCCCl)c3ccc([nH]3)c(CCCCCCl)c3ccc([nH]3)c(CCCCCCl)c3nc1C=C3)C=C2`, the TGI in the assay with ACHN renal, in the assay with CAKI-1 renal, in the assay on HCT-15 colon, in the assay with IGROV1 ovarian, in the assay with MCF7 breast and with NCI-H226 lung was greater than 100 µM in each case. In addition, the TGI with SNB-75 CNS, in the assay with SR leukemia, in the assay on T-47D breast and in the assay with UACC-257 melanoma was greater than 100 µM throughout.
Regarding `NS(=O)(=O)c1ccc(/C=C/c2ccc(O)cc2)cc1`, the GI50 with ACHN renal is 2.28 µM; in the assay on CAKI-1 renal, 5.59 µM; in the assay with HCT-15 colon, 24.6 µM; with IGROV1 ovarian, 20.2 µM; with NCI-H226 lung, 11.1 µM; in the assay with SR leukemia, 4.68 µM. Further, the TGI was 7.75 µM with ACHN renal; 32.6 µM in the assay with CAKI-1 renal; greater than 100 µM in the assay with HCT-15 colon; 84.9 µM in the assay on IGROV1 ovarian; greater than 100 µM in the assay on MCF7 breast; 33.1 µM in the assay with NCI-H226 lung. Also, the TGI in the assay on SNB-75 CNS was 78.6 µM; in the assay with SR leukemia, 55.5 µM; in the assay on T-47D breast it was 71.6 µM; with UACC-257 melanoma, greater than 100 µM.
For `COC(=O)/C=C1/OC(c2ccc(OC)cc2)=C(Cl)C1=O`, the TGI in the assay on ACHN renal was found to be 31.8 µM; in the assay with CAKI-1 renal it was 27 µM; with HCT-15 colon, 33.9 µM; in the assay on IGROV1 ovarian it was 34.1 µM; with MCF7 breast it was 25 µM; in the assay with NCI-H226 lung it was 51.1 µM. For the same compound, the TGI with SNB-75 CNS worked out at 37.3 µM; with SR leukemia, 9.53 µM; in the assay with T-47D breast it was 36.6 µM; in the assay on UACC-257 melanoma it was 49.6 µM.
Take `CC(=O)N(C(C)=O)c1cc2c3c(c1)CCCN3CCC2`: the TGI in the assay with ACHN renal, in the assay with CAKI-1 renal, in the assay with HCT-15 colon, in the assay with IGROV1 ovarian, with MCF7 breast and in the assay on NCI-H226 lung was greater than 10 µM each time. Besides, the TGI with SNB-75 CNS, with SR leukemia, with T-47D breast and with UACC-257 melanoma was greater than 10 µM throughout.
On to `c1ccc(CSC2(SCc3ccccc3)CCCCC2)cc1`, for which the TGI with ACHN renal, in the assay with CAKI-1 renal, in the assay on HCT-15 colon, in the assay on IGROV1 ovarian, in the assay on MCF7 breast and with NCI-H226 lung was greater than 10 µM throughout. Besides, the TGI in the assay with SNB-75 CNS, in the assay on SR leukemia, with T-47D breast and with UACC-257 melanoma was greater than 10 µM throughout.
On to `Cc1cnc2sn(-c3ccc(Br)cc3)c(=O)c2c1`, for which the TGI in the assay on ACHN renal is greater than 100 µM; with CAKI-1 renal it was 30.7 µM; with HCT-15 colon, greater than 100 µM; in the assay with IGROV1 ovarian it was greater than 100 µM; with MCF7 breast, greater than 100 µM; with NCI-H226 lung it was greater than 100 µM. Also, the TGI is greater than 100 µM in the assay with SNB-75 CNS, greater than 100 µM in the assay on SR leukemia, 48.4 µM in the assay with T-47D breast and greater than 100 µM with UACC-257 melanoma.
As for `COc1cccc(C2c3cc4c(cc3OC(Nc3ccccc3)C2C)OCO4)c1OC` (stereo unspecified), the TGI was greater than 100 µM in the assay on ACHN renal; greater than 100 µM in the assay on CAKI-1 renal; greater than 100 µM in the assay on HCT-15 colon; greater than 100 µM in the assay with IGROV1 ovarian; greater than 100 µM in the assay on MCF7 breast; 12.1 µM in the assay on NCI-H226 lung. Also, the TGI with SNB-75 CNS is greater than 100 µM; in the assay with SR leukemia, 11.2 µM; with T-47D breast, greater than 100 µM; in the assay with UACC-257 melanoma it was 97.3 µM.
`CC(=O)OC(Cc1c(O)c2c(C)cccc2oc1=O)C(C)(C)O` (stereo unspecified): the TGI with ACHN renal, in the assay on CAKI-1 renal, in the assay with HCT-15 colon, with IGROV1 ovarian, in the assay on MCF7 breast and in the assay with NCI-H226 lung was greater than 100 µM each time. For the same compound, the TGI in the assay on SNB-75 CNS, with SR leukemia, in the assay with T-47D breast and with UACC-257 melanoma was greater than 100 µM in each case.
For `ON=C(CC(O)(C(F)(F)Cl)C(F)(F)Cl)CC(O)(C(F)(F)Cl)C(F)(F)Cl`, the TGI in the assay with ACHN renal, in the assay on CAKI-1 renal, in the assay on HCT-15 colon, in the assay with IGROV1 ovarian, in the assay on MCF7 breast and in the assay with NCI-H226 lung was greater than 10 µM in each case. The TGI with SNB-75 CNS, with SR leukemia, in the assay with T-47D breast and with UACC-257 melanoma was greater than 10 µM in each case.
